Converted amounts (≈) assume the structure as drawn.

In assay [1] the test system is H. pylori strains ATCC 43504. Details: method as in PMID 18780820. The conditions noted are these: cited from earlier work.
Assay [2] has as its target T1, HpFabZ (Helicobacter pylori, UniProt Q5G940). As to the kind of experiment: HpFabZ enzymatic inhibition assay (spectrophotometric, substrate crotonoyl-CoA). The class given is biochemical. The method, then: The expression, purification and enzymatic inhibition assay of HpFabZ enzyme were performed according to the previously published approach with slight modification. The compounds dissolved in 1% DMSO (Dimethyl sulfoxide) were incubated with the enzyme for 2 hours before the assay started. The IC50 value of Emodin was estimated by fitting the inhibition data to a dose-dependent curve using a logistic derivative equation. The inhibition type of Emodin against HpFabZ was determined in the presence of varied inhibitor concentrations. After 2h-incubation, the reaction was started by the addition of crotonoyl-CoA. The Ki value was obtained from Lineweaver-Burk double-reciprocal plots and subsequent secondary plots.
The recombinant HpFabZ enzyme was prepared according to our previously published report. The spectrophotomeric enzyme inhibition assay approach was used for randomly screening HpFabZ inhibitor against our lab in-house natural product library. In addition, to optimize the screening efficiency and creditability, the pH profile of HpFabZ and the potential effects of DMSO on enzymatic activity were investigated [see Additional files 1, 2 and 3]. As shown in Additional file 2: Fig. S1, the pH optimum of HpFabZ was 8.0 and 1% DMSO for dissolving the tested compound had no obvious effect on the enzymatic activity (Additional file 3: Fig. S2.)

In assay [3] the target is T1, HpFabZ. In words: SPR (Biacore 3000) binding assay of Emodin to immobilized HpFabZ. The conditions noted are these: 25°C. The method, then:
The binding of Emodin to HpFabZ was analyzed by SPR technology based Biacore 3000 instrument (Biacore AB, Uppsala, Sweden). All the experiments were carried out using HBS-EP (10 mM HEPES pH 7.4, 150 mM NaCl, 3.4 mM EDTA and 0.005% surfactant P20) as running buffer with a constant flow rate of 30 μL/min at 25°C. HpFabZ protein, which was diluted in 10 mM sodium acetate buffer (pH 4.13) to a final concentration of 1.3 μM, was covalently immobilized on the hydrophilic carboxymethylated dextran matrix of the CM5 sensor chip (BIAcore) using standard primary amine coupling procedure. Emodin was dissolved in the running buffer with different concentrations ranging from 0.625 to 20 μM. All data were analyzed by BIAevaluation software, and the sensorgrams were processed by automatic correction for nonspecific bulk refractive index effects. The kinetic analyses of the Emodin/HpFabZ binding were performed based on the 1:1 Langmuir binding fit model according to the procedures described in the software manual.
SPR technology based Biacore 3000 instrument was used to investigate the kinetic feature of Emodin binding to HpFabZ.
The 1:1 Langmuir binding model was used to fit the kinetic parameters regarding the Emodin/HpFabZ binding process, in which the association rate constant (ka) and dissociation rate constant (kd) were fitted simultaneously by rate Equation 1,(1) [drawing 1]
Where, R represents the response unit, C is the concentration of the Emodin, Rmax stands for the maximal response. The equilibrium dissociation constant (KD) was determined by Equation 2.(2) [drawing 2]
A general note: In SPR one partner is held on a chip, and binding of the other changes the refractive index at the surface.

The target in assay [4] is T1, HpFabZ. In words: ITC based assay of Emodin/HpFabZ binding. Particulars: 25°C. The method, then:
ITC experiments were performed on a VP-ITC Microcalorimeter (Microcal, Northampton, MA, USA) at 25°C. HpFabZ was dialysed extensively against 20 mM Tris (pH 8.0), 500 mM NaCl and 1 mM EDTA at 4°C. Appropriate concentration of Emodin was prepared from a 50 mM stock in DMSO, and corresponding amount of DMSO (25%) was added to the protein solution to match the buffer composition. The reference power was set to 15 μCal/sec and the cell contents were stirred continuously at 300 rpm throughout the titrations. After an initial injection of Emodin (3 μL, not used for data fitting), 29 injections (6 μL each) were performed with a 3 min-delay between each injection, and then the heat changes were monitored. Blank titrations of Emodin into buffer were also performed to correct for the heats generated by dilution and mixing. The binding isotherm was fit by the single binding site model using a non-linear least squares method based on Origin (Microcal Software, Northampton, MA, USA).
To inspect the kinetic and thermodynamic characters regarding the inhibition of Emodin against HpFabZ enzyme, ITC technology based assay was performed. […] The ITC titration data in Table 2 has clearly established a 1:1 stoichiometry for HpFabZ-Emodin complex formation. Based on the obtained thermodynamic data (ΔH = -17.77 ± 1.11 kcal/mol, TΔS = -9.12 kcal/mol, ΔG = -8.65 kcal/mol), it was easily concluded that the enthalpy contributed favorably to the binding free energy in Emodin/HpFabZ interaction, indicating a significant enthalpy driven binding of Emodin to HpFabZ.

The test system of assay [5] is H. pylori strain ATCC 43504. In words: Anti-H. pylori activity assay, MIC by standard agar dilution method. Particulars: Helicobacter pylori, ATCC43504, 72 h, 3 days, 37°C, microaerobic. In kind it is cell-based. The method, then:
(§1) The bacterial growth inhibition activity for Emodin was evaluated by using Paper Discus Method. DMSO and ampicillin paper were used as negative and positive control respectively. The minimum inhibitory concentrations (MIC) values were determined by the standard agar dilution method using Columbia agar supplemented with 10% sheep blood containing two-fold serial dilutions of Emodin. The plates were inoculated with a bacterial suspension (10^8 cfu/ml) in Brain Heart Infusion broth with a multipoint inoculator. Compound-free Columbia agar media were used as controls. Inoculated plates were incubated at 37°C under microaerobic conditions (85% N2, 10% CO2 and 5% O2) and examined after 3 days.
(§2) The inhibition activities of Emodin against H. pylori strains SS1 and ATCC 43504 were assayed according to the standard agar dilution method.
For orientation: Agar dilution tests growth on a series of plates holding different concentrations.

The subject of another assay is H. pylori strain SS1. The assay is described as above. The class given is cell-based. Particulars: Helicobacter pylori, SS1, 72 h, 3 days, 37°C, microaerobic. The method, then:
as §1, §2

Another assay has as its system H. pylori strains SS1. Details: method as in PMID 18565285. Particulars: cited from earlier work.

T1 sequence (Q5G940 entry or part of it): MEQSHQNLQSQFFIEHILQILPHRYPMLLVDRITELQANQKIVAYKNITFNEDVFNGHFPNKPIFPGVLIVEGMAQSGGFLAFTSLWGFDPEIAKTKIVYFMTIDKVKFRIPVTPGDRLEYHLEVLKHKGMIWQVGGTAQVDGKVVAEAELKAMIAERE

For the compound `COc1cc(O)c2c(c1)O[C@H](c1ccc(O)cc1)CC2=O` [(S)-Sakuranetin], the “MIC, H. pylori strains ATCC 43504” value in assay [1] is 25 µg/mL (≈ 87.3 µM).

`O=c1cc(-c2ccc(O)cc2)oc2cc(O)cc(O)c12` [Apigenin]: the “MIC, H. pylori strains ATCC 43504” value in assay [1] was 25 µg/mL (≈ 92.5 µM).

As to `Cc1cc(O)c2c(c1)C(=O)c1cc(O)cc(O)c1C2=O` [Emodin, 3-methyl-1,6,8-trihydroxyanthraquinone], on HpFabZ [2] (2 h preincubation with enzyme, 1% DMSO), it took 9.7 ± 1 µM to reach half-maximal inhibition (IC50). Moreover, on HpFabZ [2] (Lineweaver-Burk and secondary plots, substrate crotonoyl-CoA, read-out: Ki, HpFabZ enzyme inhibition), the Ki (in general, a measure of affinity in units of concentration, obtained from inhibition or displacement) amounted to 1.9 ± 0.3 µM. The Inhibition type entry at HpFabZ [2] (versus substrate crotonoyl-CoA, double reciprocal plots) was “Competitive”. At HpFabZ [3] (1:1 Langmuir fit), the “Rmax, maximum analyte binding capacity” value is on record as 42.3 ± 1.51 RU and the “kd, dissociation rate constant” value is 0.193 ± 0.0061 per s. Besides, at HpFabZ [3] (HpFabZ immobilized on CM5 chip, read-out: KD, equilibrium dissociation constant determined by SPR), the dissociation constant Kd (commonly the constant that tells how readily two partners part at equilibrium) is 4.59 µM. Also, on HpFabZ [4], the TΔS is reported as -9.12 kcal/mol, the ΔG was -8.65 kcal/mol and the ΔH is -17.77 ± 1.11 kcal/mol. The Kd at HpFabZ [4] (read-out: KD', equilibrium dissociation constant determined by ITC) was 0.45 µM. Moreover, at HpFabZ [4] (single binding site model), the “N, stoichiometry of Emodin-HpFabZ complex” value stood at 1.07 ± 0.035. For the same compound, in assay [5], 10 µg/mL (≈ 37 µM) was the least that counted as inhibitory (MIC). The MIC – broadly, the smallest concentration in the dilution series that meets the test's criterion for growth inhibition – in the assay on H. pylori strain SS1 amounted to 5 µg/mL (≈ 18.5 µM).

For the compound `O=C1C=CC(=O)c2c(O)cccc21` [Juglone], the “MIC, H. pylori strains SS1” value in the assay with H. pylori strains SS1 is 5 µg/mL (≈ 28.7 µM).

For `O=c1c(O)c(-c2ccc(O)c(O)c2)oc2cc(O)cc(O)c12` [Quercetin], in assay [1], the “MIC, H. pylori strains ATCC 43504” value is 100 µg/mL (≈ 331 µM).

These data come from paper PMC2692856, “Emodin targets the β-hydroxyacyl-acyl carrier protein dehydratase from Helicobacter pylori: enzymatic inhibition assay with crystal structural and thermodynamic characterization” (BMC Microbiology, 2009).
